Some test systems named below: BT-549 breast; HOP-92 NSCLC; KM12 colon; LOX IMVI melanoma; NCI-H522 lung; NCI/ADR-RES ovarian; SF-295 CNS; SK-OV-3 ovarian; U251 CNS; RXF 393 renal.
Holding throughout (test): NCI-60 cell line screen, 48 h

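Each compound was tested at five concentrations against cells in 96-well plates for 48 hours. At the TGI there is no net growth.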

Consider `C1CC2=C(C1)[Se]C(=C1Sc3nsnc3S1)[Se]2`, for which the TGI in the experiment on BT-549 breast, with HOP-92 NSCLC, in the experiment on KM12 colon, with LOX IMVI melanoma, in the experiment on NCI-H522 lung and in the experiment with NCI/ADR-RES ovarian was over 100 µM each time. For the same compound, the TGI in the experiment on SF-295 CNS, with SK-OV-3 ovarian and in the experiment with U251 CNS was over 100 µM in each case.
On to `C=CCNC(=S)Nc1sc2c(c1C(=O)OCC)CC(C)CC2` (stereo not given), for which the TGI with BT-549 breast was over 100 µM; in the experiment on HOP-92 NSCLC it was over 100 µM; in the experiment with KM12 colon, over 100 µM; in the experiment on LOX IMVI melanoma it was over 100 µM; in the experiment on NCI-H522 lung, 46.4 µM; in the experiment with NCI/ADR-RES ovarian, over 100 µM. In addition, the TGI was 83.9 µM in the experiment on RXF 393 renal, 59.5 µM with SF-295 CNS, 69.4 µM in the experiment on SK-OV-3 ovarian and over 100 µM with U251 CNS.
In the case of `C/C=C/[C@@]1(OC(=O)c2ccccc2)C[C@@H]2CCCC[C@@H]21`, the TGI came to 28.2 µM in the experiment with BT-549 breast; 32.9 µM with KM12 colon; 44.7 µM in the experiment with LOX IMVI melanoma; 29.9 µM in the experiment with NCI-H522 lung; 41.1 µM with NCI/ADR-RES ovarian; 33.3 µM with SF-295 CNS. Further, the TGI with SK-OV-3 ovarian stood at 32.6 µM; in the experiment with U251 CNS, 29.8 µM.
For the compound `CN(C)CCNc1ccc(C(=O)NCCCN(C)CCCNC(=O)c2ccc(NCCN(C)C)c3c(=O)c4ccccc4[nH]c23)c2[nH]c3ccccc3c(=O)c12`, the TGI is 0.971 µM in the experiment on BT-549 breast; 0.616 µM in the experiment with HOP-92 NSCLC; 0.906 µM in the experiment with KM12 colon; 0.286 µM in the experiment with LOX IMVI melanoma; 0.0685 µM in the experiment with NCI-H522 lung; over 63.8 µM with NCI/ADR-RES ovarian. Besides, the TGI in the experiment with RXF 393 renal came to 0.912 µM; in the experiment with SF-295 CNS, 1.91 µM; in the experiment with SK-OV-3 ovarian, 1.3 µM; in the experiment with U251 CNS it was 0.589 µM.
Turning to `CC1=NN(C(=O)CSc2nnc(SCC(=O)N3N=C(C)CC3(O)c3ccccc3)s2)C(O)(c2ccccc2)C1` (stereo not given), the TGI was 47 µM with BT-549 breast; over 100 µM with HOP-92 NSCLC; 93.2 µM with KM12 colon; over 100 µM with LOX IMVI melanoma; over 100 µM with NCI-H522 lung; 68.3 µM in the experiment on NCI/ADR-RES ovarian. The TGI in the experiment with RXF 393 renal was 75.1 µM; in the experiment on SF-295 CNS, over 100 µM; in the experiment with SK-OV-3 ovarian, over 100 µM; with U251 CNS it was over 100 µM.
As to `O=c1[nH]c(=O)n(C2CC(O)C(CO)O2)cc1I` (stereo not given), the TGI with BT-549 breast, in the experiment with HOP-92 NSCLC, in the experiment on KM12 colon, with LOX IMVI melanoma, in the experiment on NCI-H522 lung and in the experiment with NCI/ADR-RES ovarian was over 100 µM in each case. Moreover, the TGI in the experiment on RXF 393 renal, in the experiment on SF-295 CNS, in the experiment with SK-OV-3 ovarian and in the experiment with U251 CNS was over 100 µM each time.
Consider `O=C1c2ccccc2C2CNC1(O)c1ccccc12` (stereo not given), for which the TGI with BT-549 breast, in the experiment on HOP-92 NSCLC, in the experiment on KM12 colon, in the experiment with LOX IMVI melanoma, in the experiment with NCI-H522 lung and in the experiment with NCI/ADR-RES ovarian was over 100 µM each time. Besides, the TGI in the experiment with RXF 393 renal, in the experiment on SF-295 CNS, in the experiment with SK-OV-3 ovarian and with U251 CNS was over 100 µM each time.
For the compound `CC(C)(C)OC(=O)CN1CCNCCNCC1`, the TGI in the experiment with BT-549 breast, in the experiment on HOP-92 NSCLC, in the experiment on KM12 colon, in the experiment on LOX IMVI melanoma, in the experiment with NCI-H522 lung and with NCI/ADR-RES ovarian was over 100 µM throughout. Further, the TGI in the experiment with RXF 393 renal, in the experiment with SF-295 CNS, in the experiment with SK-OV-3 ovarian and in the experiment with U251 CNS was over 100 µM throughout.
Take `O=C(c1ccccc1)c1ccc2c(c1)nc1n2C(c2c(Cl)cccc2Cl)SC1` (stereo not given): the TGI in the experiment with BT-549 breast, in the experiment with HOP-92 NSCLC, in the experiment with KM12 colon, in the experiment with LOX IMVI melanoma, in the experiment with NCI-H522 lung and in the experiment on NCI/ADR-RES ovarian was over 100 µM throughout. Moreover, the TGI in the experiment on RXF 393 renal, in the experiment with SF-295 CNS, in the experiment with SK-OV-3 ovarian and in the experiment on U251 CNS was over 100 µM in each case.
With `Nc1nc(Cl)cc(NCC2(O)CC(CO)C2)n1` (stereo not given), the TGI with BT-549 breast, in the experiment with HOP-92 NSCLC, in the experiment with KM12 colon, with LOX IMVI melanoma, in the experiment with NCI-H522 lung and in the experiment with NCI/ADR-RES ovarian was over 100 µM each time. Moreover, the TGI in the experiment with RXF 393 renal, in the experiment with SF-295 CNS, in the experiment on SK-OV-3 ovarian and with U251 CNS was over 100 µM each time.
Consider `CC1(C)O[C@H]2Cn3c(c(C#N)c4ccccc43)[C@H]2O1`, for which the TGI with BT-549 breast, in the experiment on HOP-92 NSCLC, in the experiment with KM12 colon, with NCI-H522 lung, with NCI/ADR-RES ovarian and in the experiment with SF-295 CNS was over 100 µM in each case. In addition, the TGI with SK-OV-3 ovarian and in the experiment on U251 CNS was over 100 µM in each case.
Regarding `O=C1Oc2ccccc2C(=O)/C1=C/N1C(=O)N/C(=C\c2ccccc2O)C1=O`, the TGI in the experiment with BT-549 breast is over 100 µM; with HOP-92 NSCLC, over 91 µM; in the experiment with KM12 colon, over 100 µM; in the experiment with LOX IMVI melanoma, over 100 µM; in the experiment with NCI-H522 lung, over 100 µM; with NCI/ADR-RES ovarian, over 100 µM. The TGI in the experiment on RXF 393 renal, with SF-295 CNS, with SK-OV-3 ovarian and with U251 CNS was over 100 µM each time.
Regarding `C=C(C)[C@@]1(O)O[C@H]2C[C@@]3(C)OC(=CC3=O)/C(C)=C\[C@@H]3OC(=O)[C@@]1(C)[C@H]32`, the TGI was 23.9 µM in the experiment with BT-549 breast; 41.3 µM with HOP-92 NSCLC; 32.5 µM in the experiment on KM12 colon; 29.2 µM in the experiment with LOX IMVI melanoma; 15.6 µM in the experiment on NCI-H522 lung; over 100 µM in the experiment on NCI/ADR-RES ovarian. Also, the TGI was 26.8 µM with RXF 393 renal, 66.9 µM in the experiment with SF-295 CNS, over 100 µM in the experiment with SK-OV-3 ovarian and 33.6 µM in the experiment with U251 CNS.

(Values after PubChem BioAssay (NCI).)
